Test results: patent US10017489B2, “Method for preparing benzopyran compound and application thereof in treating pulmonary fibrosis” (SHANGHAI JIAO TONG UNIVERSITY, priority 2013, dated 2018)
Where two headings read alike, the source gives them in different places.

Test system: Human lung fibroblasts, WI26 cell
Test: Inhibitory effect on WI26 cells proliferation (CCK-8 assay)
Format: cell-based
Settings: for inhibition at 15 µg/mL / inhibition at 30 µg/mL: Homo sapiens, Fibroblast, CCK-8; for toxicity to cell: based on dynamics of the inhibitory effect in FIG. 2; for inhibition at 30 µg/mL: read-out: inhibition rate, WI26 cells proliferation
Protocol: Cells: Human lung fibroblasts, WI26 cell;
Methods: wherein WI26 cells at 70-80% confluent were trysinized by 0.25% trypsin solution and seeded in 96-well plates at an initial density of 1×10^4 cells/mL. A medium was replaced 24 h later by the fresh with 15 μg/ml compound 1 and 1/1000 DMSO (drug treatment group 1 and its control) or 30 μg/ml compound 2 and 1/1000 DMSO (drug treatment group 2 and its control), then the medium was refreshed and cell viability was measured by using a CCK-8 method at day 0, 1, 2, 3, 4, 5, 6, respectively. Proliferation measurement was applied by adding 100 μL complete medium and 10 μL CCK-8 solutions to each well and incubating for 1 h. OD values of each well were measured at a primary wavelength λ=450 nm by using a Microplate Spectrophotometer. Data are shown as means±standard deviation (SD) of three independent experiments, each performed in triplicate.

CC(C)=CCC[C@]1(C)Oc2ccc(C(N)=O)cc2C[C@@H]1O [compound 1, xiamenmycin C]
inhibition at 15 µg/mL (15 μg/ml compound 1, day one): 13.8% | inhibition at 15 µg/mL (15 μg/ml compound 1, day six): 38% | toxicity to cell (normal human lung fibroblasts): low toxicity | increase of inhibition compared with drug treatment group 2 (compound 2) (compound 1 at 15 μg/ml vs compound 2 at 30 μg/ml): ~10% | effective concentration to inhibit normal human lung fibroblasts proliferation and activation (normal human lung fibroblasts): 15 µg/mL

CC(C)=CCC[C@]1(C)Oc2ccc(C(=O)N[C@H](C(=O)O)[C@@H](C)O)cc2C[C@@H]1O [compound 2, Xiamenmycin, reference compound]
inhibition at 30 µg/mL (30 μg/ml compound 2, day one): 10% | inhibition at 30 µg/mL (30 μg/ml compound 2, day six): 28.5% | toxicity to cell (normal human lung fibroblasts): low toxicity
